Source: ChEMBL document CHEMBL3507680, “University of Dundee, Gates Library screen for HepG2 cell viability”

Test: Human HepG2 cell viability assay in 384 well format
Assay type: toxicity, cell-based
Parameters: dose 125 nL, time 70.5 hour; cytotoxicity at 70.5 h: concentration not given beside the values
Settings: HepG2 cells, read-out: Inhibition

SMILES | cytotoxicity at 70.5 h [%]
Nc1cc(C(=O)N2CCCC3(C=Cc4ccccc4O3)CC2)ccn1 (stereo unspecified) | -4.49
O=C(CN1CCN(CC2CCOc3ccccc3C2)CC1)N1CCCC1 (stereo unspecified) | -13
Cc1cc(C(=O)N(C)Cc2cnn(C)c2)c(NC(=O)C(C)(C)C)s1 | -12.1
CNc1nc(C(=O)N2CCN(c3ccc(Cl)c(Cl)c3)CC2)cs1 | -6.48
CCC(=O)NC(CC)c1ccccc1C (stereo unspecified) | -5.25
Oc1ccc(N2CCC(Cc3ccccc3)CC2)nn1 | -4.56
Cc1cc(C(=O)N(C)Cc2ccn[nH]2)c(NC(=O)C(C)(C)C)s1 | -9.88
COc1ccc2c(c1)OCC(Cc1cnc(N)c(C)c1)C2 (stereo unspecified) | 1.49
CCn1c(C2CCCN(Cc3ccc(F)cc3Cl)C2)nn(C)c1=O (stereo unspecified) | 6.43
COCCOC1CCN(C(C(=O)O)c2c(Cl)cccc2OC)CC1 (stereo unspecified) | -10.5
Cn1ncc(NC(=O)Cn2ccc(-c3cccc(F)c3)n2)n1 | 1.6
CCOC(=O)c1cc2c(=O)[nH]c(=O)n(CCc3ccccc3)c2nc1C | -7.68
COCC(=O)N1CCC(C(=O)Nc2ccc(S(N)(=O)=O)cc2)CC1 | -7.49
Cc1ccc(NC(=O)c2cc3c(=O)n(C)c(=O)n(C)c3nc2C)cc1Cl | 1.87
Cc1ccc2c(c1)SCC(=O)N2CC(=O)N1CCC[C@H]1c1nc(C)no1 | -5.13
Cn1c(CN2CCCC2)nnc1C1CCCN(C(=O)CN2CCCC2)C1 (stereo unspecified) | 2.51
CSc1ncccc1C(=O)N1C[C@H]2CC[C@@H]1CN(C(=O)N(C)C)C2 | -7.79
Cc1cc2c(c(-c3cnccn3)c1)OC(CN)C2 (stereo unspecified) | -6.44
Cc1ccc(O)c(CN2CCn3nc(C(=O)N4CCCC4)cc3C2)n1 | 0.113
COc1ccc(-c2cccc3c2OC(CN)C3)cc1F (stereo unspecified) | 5.9
c1cncc(CCc2nc(C3CC3)nn2-c2ccc3c(c2)OCCO3)c1 | 21.8
CSCCc1c(-c2ccccc2)ncn1CC(C)(C)N1CCCC1 | -10.9
Cc1ccc(N2CCC(C(O)c3cccs3)CC2)nn1 (stereo unspecified) | -4.12

SMILES | cytotoxicity at 70.5 h [%]
Cc1c[nH]c(CN2CCCn3nc(CNS(C)(=O)=O)cc3C2)n1 | 16
Cc1ccc(OCC2CCCN(C(=O)c3csc(CN(C)C)n3)C2)cc1 (stereo unspecified) | -4.88
CCC[C@H]1CN(CCS(C)(=O)=O)C[C@@H]1NC(=O)c1ccccn1 | -5.77
CC(=O)NCc1nnc2n1CCN(c1nc(C)nc3sccc13)CC2 | -7.13
O=C(N[C@@H]1CCNC[C@H]1O)c1ccccc1OC(F)(F)C(F)F | 0.818
C=C(C)CNC(=O)C1CCCN(C2CCN(C(C)C)CC2)C1 (stereo unspecified) | -2.47
CCNC(=O)[C@@H]1C[C@@H](NC(=O)Cc2cc(C)no2)CN1Cc1ccsc1 | -12.7
COc1ccccc1OCc1cc(C(=O)N2C[C@@H](C)O[C@@H](C)C2)n[nH]1 | -11.2
CC(C)c1cc(N(C)Cc2noc(C3CCCC3)n2)n2nccc2n1 | -13.6
Cn1cc(C(=O)N2CCCCC2CCc2ccccc2)cn1 (stereo unspecified) | -10.6
CC(C)[C@@H](C)NC(=O)N1CCn2nc(C(=O)NCCN(C)C)cc2C1 | -0.748
Cc1ncsc1C(=O)N1CCc2[nH]nc(-c3ccc4c(c3)OCO4)c2C1 | 13.6
Cc1ccc([C@@H]2CN(S(=O)(=O)c3cc(C)ccc3F)C[C@H]2N(C)C)cc1 | -8.32
COc1cccc(OCC2CCCN(Cc3ncc[nH]3)C2)c1 (stereo unspecified) | 33.4
CC(C1CCN(Cc2cccc(OC(F)F)c2)CC1)N1CCOCC1 (stereo unspecified) | -9.64
Cc1c(-c2n[nH]c3c2CN(CC2CCOC2)CC3)cccc1C(F)(F)F (stereo unspecified) | -6.06
CCNc1nc(C)c(C(=O)N(C)Cc2noc(C)n2)s1 | 11.7
CC(C)n1cc(C(=O)NCC(CO)Cc2cccs2)cn1 (stereo unspecified) | -8.73
COCCN(C/C=C/c1ccccc1)Cc1[nH]cnc1C | 1.05
CN1C(=O)CC(C(=O)O)C12CCN(c1ccc3ccccc3n1)CC2 (stereo unspecified) | -4.07
CCCc1n[nH]cc1C(=O)N1CCCC(c2nccn2CC2CC2)C1 (stereo unspecified) | -6.16
O=C(NCc1cc2n(n1)CCCN(Cc1ccc(CO)o1)C2)C1CCC1 | 18.2
O=C1O[C@@H]2CN(S(=O)(=O)N3CCCC3)C[C@@H]2N1CCc1cccc(Cl)c1 | 0.28

SMILES | cytotoxicity at 70.5 h [%]
COc1ccc(C(=O)N2CCN(C(=O)c3csc(C(C)C)n3)CC2)cc1 | 28
O=C(CCn1cncn1)N1C[C@H]2CC[C@@H]1CN(Cc1ccncc1)C2 | 16.7
CN(Cc1ccc2nonc2c1)C(=O)CCc1cc2n(n1)CCCNC2 | -6.8
CCN(C)C[C@@H]1CN(S(=O)(=O)c2ccc(OC)cc2)C[C@@H]1CO | 10.4
O=C1CCNC(=O)N1CC(=O)N1CCC1c1ccc(F)cc1 (stereo unspecified) | -10.7
CCC(CO)N(Cc1ccccn1)C(=O)c1ccc(F)c(F)c1 (stereo unspecified) | -6.83
Cc1nc(O)cc(CN2C[C@H](NC(=O)C3CCC3)[C@@H](C3CC3)C2)n1 | -3.55
CC(C)[C@H]1CN(Cc2c[nH]cn2)C[C@@H]1NC(=O)CC1CCC1 | -6.54
O=c1[nH]c(-c2ccccc2F)nc2c1CCNC2 | 14.4
Cn1ncc2c(N3CCC3)nc(-c3ccncc3)nc21 | 4.72
CCc1nnc(CN(CC)C(=O)C2CCC(=O)N(C3CCCC3)C2)o1 (stereo unspecified) | -4.66
O=C(Nc1ccc2ncsc2c1)N1CCCN([C@H]2COC[C@@H]2O)CC1 | 0.731
CNc1nc(C)c(C(=O)N2CCCCC2CCc2ccccc2)s1 (stereo unspecified) | -5.18
NC(=O)CCC1CCCN(c2ncnc3c2Cc2ccccc2OC3)C1 (stereo unspecified) | -4.64
CCc1[nH]c2c(CNC(=O)C3CCS(=O)(=O)CC3)cc(C)cc2c1C | -7
COCc1ccccc1C(=O)N1CCCC1Cn1nc(C)cc1C (stereo unspecified) | 0.418
Cc1cc(C)n(CC2CCCN2C(=O)c2cccc3c2OCCO3)n1 (stereo unspecified) | -3.57
Cc1cnn(CC2CCCN2C(=O)c2cccc3[nH]ncc23)c1 (stereo unspecified) | 1.32
CC(C)c1nc(C2CCCN2C(=O)c2cnns2)no1 (stereo unspecified) | -1.79
Cc1cc(C)n(CC2CCCN2C(=O)c2cccc3c2OCO3)n1 (stereo unspecified) | -3.49
Cc1nc(C)n(C2CCCN(C(=O)c3ccc(OC(C)C)nc3)C2)n1 (stereo unspecified) | -0.207
Nc1nc(CN2CCCC2Cn2cncn2)nc2ccccc12 (stereo unspecified) | -2.37
c1ccc2c(N3CCCCC3Cn3cccn3)ncnc2c1 (stereo unspecified) | -1.4

SMILES | cytotoxicity at 70.5 h [%]
Cc1nc(C)n(C2CCCN(C(=O)c3ccc(CN(C)C)cc3)C2)n1 (stereo unspecified) | -4.23
CC(=O)N1CCCN(C(=O)c2ccc(Cn3ccccc3=O)o2)CC1 | 2.33
CC(C)CN1CCN(C(=O)CCn2cccn2)CC1 | -1.87
CC(=O)N(Cc1ncc(C(C)C)o1)C1CCN(Cc2ccno2)C1 (stereo unspecified) | 1.29
CCc1ccc(C(CNC(=O)c2c(C)noc2C)N(C)C)cc1 (stereo unspecified) | 5.58
COc1ccccc1CC(=O)N1CCC(NCc2ccncc2)CC1 | -1.58
COc1ccccc1CC(=O)N1CCC(NCc2ccc(C)o2)CC1 | -11.2
CCCC1CCCN(C(=O)CCn2cccn2)CC1 (stereo unspecified) | 22.3
c1cnc(-c2nc(CN3CCCN(Cc4cccs4)CC3)cs2)nc1 | -3.19
CCc1nc(C2CCCN2Cc2nnc(C3CC3)o2)no1 (stereo unspecified) | -3.82
NC(=O)C1CCN(C(=O)NCc2csc(Br)c2)CC1 | -7.32
CC(C)N1CCN(C(=O)c2ccc(Cn3ccccc3=O)o2)CC1 | -5.81
O=C(Nc1ccc(CCN2CCOCC2)cc1)C1CCCC1 | -3.35
O=C(NCCNc1ccccn1)Nc1cc(C(F)(F)F)c[nH]c1=O | -3.73
O=C(NCCc1cccnc1)Nc1cc(C(F)(F)F)c[nH]c1=O | 14.6
O=C(CCNc1ncccn1)Nc1cc(C(F)(F)F)c[nH]c1=O | -6.4
O=C(NCCC1=CCCCC1)Nc1cc(C(F)(F)F)c[nH]c1=O | 0.799
Cc1ccc(CCNC(=O)Nc2cc(C(F)(F)F)c[nH]c2=O)o1 | -4.56
O=C(NCCc1ccco1)Nc1cc(C(F)(F)F)c[nH]c1=O | -0.302
Cc1nc2n(n1)CC(NCc1nc(-c3ccccn3)no1)CC2 (stereo unspecified) | -5.58
CCOC(=O)c1sc2ccsc2c1CNC(=O)COC | 3.32
O=C(Nc1ccc(CCN2CCC(O)CC2)cc1)C1CCCCC1 | -2.92
O=C(c1ccc(Cn2ccccc2=O)o1)N1CCC2(CC1)OCCO2 | -2.65

SMILES | cytotoxicity at 70.5 h [%]
CN(C)C(=O)c1cccc(CN2CCN(CCO)CC2)c1 | 38.5
CC(O)CN1CCN(Cc2cccc(C(=O)N3CCCCC3)c2)CC1 (stereo unspecified) | 17.1
CC(O)CN1CCC(CN(C)Cc2cccc(C(=O)N(C)C)c2)CC1 (stereo unspecified) | 12.1
CC(C)c1nc2c(n1C)CCN(Cc1nc(-c3ccco3)no1)C2 | -7.27
COCCc1noc(CN2CCOC(CN(C)C)C2)n1 (stereo unspecified) | -8.08
COc1c(CNC2CCc3ccccc32)c(C(C)C)nn1C (stereo unspecified) | -16.4
CN(C)CC1CN(Cc2nc(-c3cccnc3)no2)CCO1 (stereo unspecified) | -12.3
COc1c(CNC2CCOc3c(Cl)cccc32)c(C(C)C)nn1C (stereo unspecified) | 11.4
CCCc1nc(C(C)(C)NC(=O)C2CC(=O)N(CC)C2)no1 (stereo unspecified) | -13
NC(=O)C1CCN(C(=O)c2ccn(-c3ccc(F)cc3)n2)CC1 | 7.95
CCc1nc(C)c(C(=O)NCCNC(=O)Cc2cccc(F)c2)s1 | -6.24
CC(C)(C)c1nc(C(C)(C)NC(=O)C2CC(=O)N(CC3CC3)C2)no1 (stereo unspecified) | -1.01
COc1cc(CNCC(O)c2ccccc2F)cc2c1OCO2 (stereo unspecified) | -14
CCCc1nc(C(C)(C)NC(=O)C2CC(=O)N(C3CCCC3)C2)no1 (stereo unspecified) | -11.9
COc1c(CNCCNC(=O)c2ccc(C)c(F)c2)c(C)nn1C | -4.84
CCOc1cc(C)nc(N2CCN(C(=O)c3cc[nH]n3)CC2)n1 | -3.5
COc1cc(CNCC(O)c2ccccc2)cc2c1OCO2 (stereo unspecified) | 3.15
COc1c(CNCCNC(=O)c2ccccc2)c(C)nn1C | -1.1
COc1c(CNCCNC(=O)c2cccc(C)c2)c(C)nn1C | 3.54
